Assay results as given in PubChem BioAssay (NCI).
Where “and” joins values, the source holds several entries; their conditions need not be identical. Equal values may be shown once.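 Step 1: Grow cells in 96-well plates. Step 2: Expose to compound for 48 hours at 5 concentrations. Step 3: Interpolate endpoints linearly; if unreached, use highest concentration. GI50 is the concentration that inhibits growth by half. TGI marks complete inhibition of growth.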

Key:
Assay in all cases: DTP human tumour cell line panel, 48 h
786-0 renal = tested on: 786-0 renal
A498 renal = tested on: A498 renal
HCT-15 colon = tested on: HCT-15 colon
NCI-H522 lung = tested on: NCI-H522 lung
NCI/ADR-RES ovarian = tested on: NCI/ADR-RES ovarian
OVCAR-3 ovarian = tested on: OVCAR-3 ovarian
PC-3 prostate = tested on: PC-3 prostate
SK-MEL-2 melanoma = tested on: SK-MEL-2 melanoma
SK-MEL-28 melanoma = tested on: SK-MEL-28 melanoma
T-47D breast = tested on: T-47D breast

SMILES	GI50 (786-0 renal)	TGI (786-0 renal) [µM]	GI50 (A498 renal)	TGI (A498 renal) [µM]	GI50 (HCT-15 colon)	TGI (HCT-15 colon) [µM]	GI50 (NCI-H522 lung)	TGI (NCI-H522 lung)	GI50 (NCI/ADR-RES ovarian)	TGI (NCI/ADR-RES ovarian) [µM]	GI50 (OVCAR-3 ovarian)	TGI (OVCAR-3 ovarian)	GI50 (PC-3 prostate)	TGI (PC-3 prostate) [µM]	GI50 (SK-MEL-2 melanoma)	TGI (SK-MEL-2 melanoma) [µM]	GI50 (SK-MEL-28 melanoma) [µM]	TGI (SK-MEL-28 melanoma) [µM]	GI50 (T-47D breast) [µM]	TGI (T-47D breast) [µM]
CC(C)[C@@H]1CC[C@]2(CO2)[C@@H]2C(=O)OCC(C(=O)O)=C[C@H]21	0.358 µM	> 100	0.203 µM	0.738	0.378 µM	> 100	0.0462 µM	0.155 µM	0.431 µM	> 100	0.47 µM	> 100 µM	0.677 µM	> 100	0.208 µM	0.407	0.207	0.424	0.381	> 100
CC(=O)Oc1ccc(C2=Cc3ccc(OC(C)=O)cc3OC2C)cc1 (configuration not stated)	4.1 µM	33.8	2.25 µM	7.95	5.07 µM	26.1	3.58 µM	23.1 µM	3.57 µM	73.1	3.33 µM	15.3 µM	5.8 µM	> 100	23.4 µM	78.5	10.3	43.4	12.7	60.5
Cn1c(=O)c2nc3sc4c(n3c2n(C)c1=O)C(=O)c1ccccc1C4=O		> 78.2		> 100		> 86.5		27.9 µM		87.3		> 50.6 µM		> 76.1		> 75.7		> 100		23.6
Nc1nc(=S)c2ncn(C3OC(COP(=O)(O)O)C(O)C3O)c2[nH]1 (configuration not stated)	2.53 µM	> 100	0.631 µM	9.24	1.72 µM	> 100	2.11 µM	9.52 µM	0.491 µM	> 100	3.2 µM	> 100 µM	3.44 µM	> 100	3.89 µM	> 100	6.57	> 100	0.541	> 100
Cc1cc(Cl)nc(N(CCNc2ccnc3cc(Cl)ccc23)Cc2ccco2)n1	1.65 µM	3.1	1.74 µM	5.51	1.61 µM	3.69	1.76 µM	3.61 µM	1.74 µM	4	1.75 µM	3.32 µM	2.03 µM	5.49	2.18 µM	4.8	1.74	3.33	1.66	3.61
Cc1cccc(Cn2cc(CO)c3cnccc32)c1	> 100 µM	> 100	10 µM	26.7	> 100 µM	> 100	60.3 µM	> 100 µM	55.2 µM	> 100	40.1 µM	> 100 µM	28.2 µM	> 100	> 100 µM	> 100	> 100	> 100	47.2	> 100
CN(C)c1ccc(-c2cc(-c3ccc(Nc4nc(Nc5ccc(Cl)cc5)nc(Nc5ccc(Cl)cc5)n4)cc3)nc(N)c2C#N)cc1	16.7 µM	> 100	6.41 µM	> 100	3.7 µM	> 100	48.4 µM	> 100 µM	> 100 µM	> 100	13.6 µM	92 µM	1.53 µM	7.44	10.8 µM	86.7	2.05	6.35	7.59	> 100
O=C(c1cccs1)c1c(C(F)(F)F)n([O-])c2cc(Cl)c(Cl)cc2[n+]1=O	0.756 µM	1.91	1.27 µM	2.61	0.286 µM	0.808	0.55 µM	2.2 µM	1.05 µM	2.55	0.668 µM	1.82 µM	1.37 µM	2.81	2.7 µM	> 100	1.88	4.61	2.18	4.94
CN1CCN(c2c(F)cc(NC3=C(Cl)C(=O)c4ncccc4C3=O)cc2F)CC1	1.84 µM	3.44	13.4 µM	29.2	1.82 µM	4.09	1.43 µM	3.82 µM	17.9 µM	49.3	0.303 µM	1.37 µM	5.87 µM	21.1	13.7 µM	28	6.47	19	1.95	5.04
O=C(Nc1ccc(OC(F)(F)Cl)cc1)c1cnc(N2CC[C@@H](O)C2)c(-c2ccn[nH]2)c1	15 µM	32.8	14.8 µM	31.2	7.61 µM	24.2	12.6 µM	31.6 µM	24.9 µM	79.6	15 µM	41.4 µM	16.3 µM	48.4	12.9 µM	29.5	11.8	24.9	6.12	46.7
OCCCCC#Cc1ccccc1C#Cc1cccc(C(F)(F)F)c1	11.1 µM	34	18.2 µM	33.1	16.3 µM	30.8	16.6 µM	33.6 µM	15.5 µM	31.1	16.8 µM	31.6 µM	18.2 µM	33.7	19.7 µM	42.1	12	25	22	44.5
CSc1nc2nc(-c3ccccc3)c(C)c-2c2n1C(C)C(=O)N2 (configuration not stated)	29.2 µM	> 100	32.2 µM	> 100	51.2 µM	> 100	38.1 µM	> 100 µM	38.8 µM	> 100	26.8 µM	81.8 µM	31.3 µM	> 100	30.1 µM	78.1	43.4	> 100	29.8	> 100
CC[C@H](C)[C@H](NC(=O)[C@H]1CCCCN1C)C(=O)N(C)[C@H](C[C@@H](OC(C)=O)c1nc(C(=O)NC23CC(C(=O)OC)(C2)C3)cs1)C(C)C	0.00064 µM and 0.00325 µM	> 32.5	0.00723 µM and 0.00325 µM	0.277	0.00333 µM and 0.00325 µM	> 32.5	0.000156 µM and < 0.00325 µM	0.000901 µM and < 0.00325 µM	0.0522 µM and 0.0479 µM	0.371	0.000256 µM and < 0.00325 µM	0.0158 µM and < 0.00325 µM	0.00129 µM and 0.00325 µM	> 32.5	0.00102 µM and 0.00325 µM	0.0347		> 32.5	0.000499	
CNCc1ccc(-c2cc(-c3nc(-c4ccc(S(=O)(=O)C(C)C)cc4)cnc3N)on2)cc1	0.362 µM	11.3		2.03	0.519 µM	2.3	14.7 µM	39.2 µM	3.08 µM	> 74.4	2.93 µM	10.6 µM	1.97 µM	8.32	2 µM	16.4	1.72	3.21	15.7	37.8
N#CC(C#N)=C/C=C(\Sc1ccc(Cl)cc1)c1ccc(F)cc1	0.42 µM	3.07	3.42 µM	8.67	1.49 µM	> 33.1	2.8 µM	> 47.6 µM	0.948 µM	4.94	0.31 µM	2.6 µM	0.496 µM	6.19	4.15 µM	> 63.6	6.61	19.3	13.3	> 71.6
